Measured values published in PubChem BioAssay (NCI).
“And” between values parts separate entries of the source, which are not always exact repeats. Equal entries are not always repeated.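 Test compounds were applied to cells in 96-well plates for 48 hours at 5 doses. The concentration for 50% growth inhibition is given as GI50. Definition used: TGI = concentration required for complete inhibition of growth.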

What was measured:
Experiment in all cases: DTP human tumour cell line panel, 48 h
[1] = test system: 786-0 renal
[2] = test system: BT-549 breast
[3] = test system: COLO 205 colon
[4] = test system: LOX IMVI melanoma
[5] = test system: OVCAR-3 ovarian
[6] = test system: OVCAR-4 ovarian
[7] = test system: UACC-62 melanoma
[8] = test system: UO-31 renal

Compound: CNC(=O)c1cccc2cc(Oc3ccnc4cc(OCC5(N)CC5)c(OC)cc34)ccc12
- GI50 [1]: 2.82 µM
- TGI [1]: 10.1 µM
- GI50 [2]: 5.63 µM
- TGI [2]: 22.1 µM
- GI50 [3]: 8.66 µM
- TGI [3]: 23.7 µM
- GI50 [4]: 3.89 µM
- TGI [4]: 17.1 µM
- GI50 [5]: 8.86 µM
- TGI [5]: 23.7 µM
- GI50 [6]: 2.89 µM
- TGI [6]: 21.8 µM
- GI50 [7]: 4.03 µM
- TGI [7]: 15.9 µM
- GI50 [8]: 2.57 µM
- TGI [8]: 8.16 µM

Compound: N#CCCN(CCCN(CCCN(C(=O)Nc1ccccc1)c1ccccc1)C(=O)Nc1ccccc1)C(=O)Nc1ccccc1
- GI50 [1]: > 100 µM
- TGI [1]: > 100 µM
- GI50 [2]: > 100 µM
- TGI [2]: > 100 µM
- GI50 [3]: > 100 µM
- TGI [3]: > 100 µM
- TGI [4]: > 100 µM
- GI50 [5]: > 100 µM
- TGI [5]: > 100 µM
- TGI [6]: > 100 µM
- GI50 [7]: > 100 µM
- TGI [7]: > 100 µM
- TGI [8]: > 8.75 µM

Compound: CCC1CN2C(=N1)c1ccccc1-c1cc(Cl)ccc12 (stereo unspecified)
- GI50 [1]: 3.32 µM
- TGI [1]: 13 µM
- GI50 [2]: 13.2 µM
- TGI [2]: 50.3 µM
- GI50 [3]: 3.21 µM
- TGI [3]: 12.6 µM
- GI50 [4]: 1.81 µM
- TGI [4]: 4.44 µM
- GI50 [5]: 3.48 µM
- TGI [5]: 9.9 µM
- GI50 [6]: 3.97 µM
- TGI [6]: 28.6 µM
- GI50 [7]: 1.76 µM
- TGI [7]: 5.17 µM
- GI50 [8]: 2.39 µM
- TGI [8]: 15.1 µM

Compound: COc1cccc(-n2nc(C)c3c(N/N=C(\C)c4ccncc4)ncnc32)c1
- GI50 [1]: > 25 µM
- TGI [1]: > 25 µM
- GI50 [2]: > 21.9 µM
- TGI [2]: > 25 µM
- GI50 [3]: > 25 µM
- TGI [3]: > 25 µM
- GI50 [4]: > 25 µM
- TGI [4]: > 25 µM
- GI50 [5]: > 25 µM
- TGI [5]: > 25 µM
- GI50 [6]: > 25 µM
- TGI [6]: > 25 µM
- GI50 [7]: > 25 µM
- TGI [7]: > 25 µM
- GI50 [8]: 13.8 µM
- TGI [8]: > 25 µM

Compound: COc1c(O)cc2oc(-c3ccc(O)cc3)cc(=O)c2c1O
- TGI [1]: > 100 µM
- TGI [2]: > 100 µM
- TGI [3]: > 100 µM
- TGI [4]: > 100 µM
- TGI [5]: > 100 µM
- TGI [6]: > 100 µM
- TGI [7]: 68.1 µM
- TGI [8]: > 100 µM

Compound: Nc1nc(N)c2nc(CNc3ccc(C(=O)NC(CC(=O)O)C(=O)O)cc3)cnc2n1 (stereo unspecified)
- GI50 [1]: 0.372 µM
- TGI [1]: > 100 µM
- GI50 [2]: 1.03 µM
- TGI [2]: > 100 µM
- GI50 [3]: 31 µM
- TGI [3]: > 100 µM
- GI50 [4]: 0.16 µM
- TGI [4]: > 100 µM
- GI50 [5]: 0.694 µM
- TGI [5]: > 100 µM
- GI50 [6]: > 100 µM
- TGI [6]: > 100 µM
- GI50 [7]: 3.09 µM
- TGI [7]: > 100 µM
- GI50 [8]: 1.18 µM
- TGI [8]: > 35.9 µM

Compound: CCCCC[C@H]1C/C=C2/C(=O)C=C[C@@H]2C/C=C\CCCC(=O)O[C@@H](CCCCC)C/C=C2/C(=O)C=C[C@@H]2C/C=C\CCCC(=O)O1
- GI50 [1]: 0.41 µM
- TGI [1]: 0.811 µM
- GI50 [2]: 0.32 µM
- TGI [2]: 1.02 µM
- GI50 [3]: 0.25 µM
- TGI [3]: 0.671 µM
- GI50 [4]: 0.0695 µM
- TGI [4]: 0.217 µM
- GI50 [5]: 0.0955 µM
- TGI [5]: 0.353 µM
- GI50 [6]: 0.475 µM
- TGI [6]: 2.67 µM
- GI50 [7]: 0.253 µM
- TGI [7]: 0.783 µM
- GI50 [8]: 0.394 µM
- TGI [8]: 0.75 µM

Compound: O=C(Nc1cccc(-n2cc(-c3ccncc3)c(-c3cc(O)cc(Cl)c3)n2)c1)Nc1ccc(Cl)c(C(F)(F)F)c1
- GI50 [1]: 1.83 µM
- TGI [1]: 4.45 µM
- GI50 [2]: 2.25 µM
- TGI [2]: 6.15 µM
- GI50 [3]: 2.25 µM
- TGI [3]: 5.17 µM
- GI50 [4]: 1.97 µM
- TGI [4]: 4.36 µM
- GI50 [5]: 2.34 µM
- TGI [5]: 6.65 µM
- GI50 [6]: 3.21 µM
- TGI [6]: 9.23 µM
- GI50 [7]: 2.08 µM
- TGI [7]: 4.38 µM
- GI50 [8]: 2.1 µM
- TGI [8]: 6.14 µM

Compound: C=CCC1(O)c2ccccc2C(=O)c2c(NCCN(CC(=O)OCC)CC(=O)OCC)cccc21 (stereo unspecified)
- GI50 [1]: > 100 µM
- TGI [1]: > 100 µM
- GI50 [2]: > 100 µM
- TGI [2]: > 100 µM
- GI50 [3]: > 100 µM
- TGI [3]: > 100 µM
- GI50 [4]: > 100 µM
- TGI [4]: > 100 µM
- GI50 [5]: > 100 µM
- TGI [5]: > 100 µM
- GI50 [6]: > 100 µM
- TGI [6]: > 100 µM
- GI50 [7]: > 100 µM
- TGI [7]: > 100 µM
- GI50 [8]: > 100 µM
- TGI [8]: > 100 µM

Compound: CCOC(=O)c1cc2c(n1Cc1cccc(OC)c1)-c1oncc1CCC2
- GI50 [1]: 6.65 µM
- TGI [1]: > 100 µM
- GI50 [2]: 1.61 µM
- TGI [2]: > 100 µM
- GI50 [3]: 0.78 µM
- TGI [3]: 23.8 µM
- GI50 [4]: 2.93 µM
- TGI [4]: > 100 µM
- GI50 [5]: 0.372 µM
- TGI [5]: 4.53 µM
- GI50 [6]: 8.38 µM
- TGI [6]: > 100 µM
- GI50 [7]: 0.712 µM
- TGI [7]: > 100 µM
- GI50 [8]: 4.48 µM
- TGI [8]: > 100 µM

Compound: C#CC1(O)C(COP(=O)(O)OC(COCCCCCCCCCCCCCCCCCC)COP(=O)(O)OCC2OC(n3cc(F)c(=O)[nH]c3=O)CC2O)OC(n2ccc(N)nc2=O)C1O (stereo unspecified)
- GI50 [1]: 0.547 µM
- TGI [1]: > 100 µM
- TGI [2]: > 42.8 µM and 8.71 µM
- TGI [3]: 1.99 µM and 6.07 µM
- TGI [4]: 7.25 µM and 37.7 µM
- TGI [5]: > 29.1 µM and 23.4 µM
- GI50 [6]: 3.05 µM and 1.5 µM
- TGI [6]: 31.4 µM and 23.4 µM
- TGI [7]: 11.8 µM and 7.46 µM
- GI50 [8]: < 0.0376 µM and 0.115 µM
- TGI [8]: 1.15 µM and 4.26 µM

Compound: CCN(Cc1ccc(F)cc1)c1ccc(CO)c(F)c1
- GI50 [1]: 12.6 µM
- TGI [1]: 36.6 µM
- GI50 [2]: 12.5 µM
- TGI [2]: 39.4 µM
- GI50 [3]: 10.8 µM
- TGI [3]: 27.6 µM
- GI50 [4]: 13.9 µM
- TGI [4]: 31.2 µM
- GI50 [5]: 5.38 µM
- TGI [5]: 18 µM
- GI50 [6]: 3.93 µM
- TGI [6]: 27.6 µM
- GI50 [7]: 1.62 µM
- TGI [7]: 7.42 µM
- GI50 [8]: 8.67 µM
- TGI [8]: 54.4 µM
